Data published in US9624206B2, “Antibacterial 1H-indazole and 1H-indole derivatives” (priority 2013, dated 2017).
Read-outs that look alike come from different tables or passages of the source.

Key:
Format in all cases: cell-based
wild-type E. coli A-1261 = assay: MIC against wild-type E. coli A-1261 with or without alkaline phosphatase or esterase; details: Escherichia coli
Protocol: Minimal Inhibitory Concentrations (MICs; mg/L) were determined in cation-adjusted Mueller-Hinton Broth by a microdilution method following the description given in “Methods for Dilution Antimicrobial Susceptibility Tests for Bacteria that Grow Aerobically”, Approved standard, 7th ed., Clinical and Laboratory Standards Institute (CLSI) Document M7-A7, Wayne, Pa., USA (2006). The compounds of Examples 48 and 49 were tested against wild-type E. coli A-1261 in the absence of alkaline phosphatase or esterase, in the presence of an alkaline phosphatase and in the presence of an esterase. The corresponding antibacterial test results are given in Table 2 hereafter (MICs in mg/L).

E. coli ATCC25922 = assay: Bacterial growth minimal inhibitory concentration (microdilution, CLSI M7-A7); details: Escherichia coli, ATCC25922; quinolone-sensitive strain; cation-adjusted Mueller-Hinton Broth
Procedure, shortened: (§1)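 Broth microdilution in cation-adjusted Mueller-Hinton broth per CLSI M7-A7, with MICs in mg/L. K. pneumoniae A-651 and A. baumannii T6474 are multiply resistant, including to quinolones. E. coli ATCC25922 and P. aeruginosa ATCC27853 are quinolone-sensitive.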

P. aeruginosa ATCC27853 = assay: as above; details: Pseudomonas aeruginosa, ATCC27853; quinolone-sensitive strain; cation-adjusted Mueller-Hinton Broth
Procedure, shortened: as §1

[1] = tested on: Acinetobacter baumannii T6474; assay: as above; details: Acinetobacter baumannii, T6474; multiply-resistant strain (in particular quinolone-resistant); cation-adjusted Mueller-Hinton Broth
Procedure, shortened: as §1

K. pneumoniae A-651 = assay: as above; details: Klebsiella pneumoniae, A651; multiply-resistant strain (in particular quinolone-resistant); cation-adjusted Mueller-Hinton Broth
Procedure, shortened: as §1

[2] = read-out: MIC for E. coli A-1261 In the absence of alkaline phosphatase or esterase
[3] = read-out: MIC for E. coli A-1261 In the presence of an alkaline phosphatase (2 i.U./mL)
[4] = read-out: MIC for E. coli A-1261 In the presence of an esterase (10 i.U./mL)

Structure (SMILES): C[C@@](CCn1ncc2cc(C#Cc3ccc(C4(COP(=O)(O)O)CC4)cc3)ccc21)(C(=O)NO)S(C)(=O)=O [Example 48, (R)-(1-(4-((1-(4-(hydroxyamino)-3-methyl-3-(methylsulfonyl)-4-oxobutyl)-1H-indazol-5-yl)ethynyl)phenyl)cyclopropyl)methyl dihydrogen phosphate]
- MIC (wild-type E. coli A-1261; [2]): 16 µg/mL
- MIC (wild-type E. coli A-1261; [3]): 1 µg/mL
- MIC (wild-type E. coli A-1261; [4]): 16 µg/mL

Structure (SMILES): CN(C)CC(=O)OCC1(c2ccc(C#Cc3ccc4c(cnn4CC[C@](C)(C(=O)NO)S(C)(=O)=O)c3)cc2)CC1.O=CO [Example 49, (R)-(1-(4-((1-(4-(hydroxyamino)-3-methyl-3-(methylsulfonyl)-4-oxobutyl)-1H-indazol-5-yl)ethynyl)phenyl)cyclopropyl)methyl dimethylglycinate formate]
- MIC (wild-type E. coli A-1261; [2]): 1 µg/mL
- MIC (wild-type E. coli A-1261; [3]): 1 µg/mL
- MIC (wild-type E. coli A-1261; [4]): 0.125 µg/mL
- MIC (E. coli ATCC25922): 1 µg/mL
- MIC (P. aeruginosa ATCC27853): 16 µg/mL
- MIC [1]: 2 µg/mL
- MIC (K. pneumoniae A-651): 2 µg/mL
